Data taken from patent publication US9351955B2, “Compounds and pharmaceutical compositions thereof for the treatment of cystic fibrosis” (Galapagos NV, priority 2013, dated 2016).
Where “and” joins values, the source holds several entries; their conditions need not be identical. Identical values can stand only once.

Assays:
CFTR ΔF508 mutant = target: T1, CFTR ΔF508 mutant (Homo sapiens, UniProt P13569, DEL508-508); assay: YFP-halide influx assay for the CFTR-ΔF508 mutation (96 well, CFBE41o- cells); type: cell-based; conditions: compounds of the invention, 96 well, forskolin 10.67 μM, read-out: EC50 measured by YFP-halide influx assay for the CFTR-ΔF508
T1 construct: expressed in transfected cells; host or cells: CFBE41o- (adenoviral transduction)
Outline: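 CFBE41o- cells were adenovirally transduced with CFTR ΔF508 and the halide-sensitive YFP H148Q/I152L. They were then corrected either at 27 °C for 24 h or with a CFTR modulator for 24 h at 37 °C. After iodide injection, YFP quenching over 7 s was expressed as 1−F/F0, and EC50 was derived from the concentration–response plot.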

CFTR ΔF508 = target: T2, CFTR ΔF508 (Homo sapiens, UniProt P13569, DEL508-508); assay: TECC assay, primary bronchial epithelial cells from CF patients homozygous for CFTR ΔF508; type: cell-based; conditions: for ΔIsc / Current increase: TECC assay; for Current increase: difference between ΔIsc with compound and ΔIsc DMSO (baseline); for EC50: primary bronchial epithelial cells, CFTR ΔF508, several values in a cell = repeat determinations
T2 construct: host or cells: primary bronchial epithelial cells from CF patients homozygous for ΔF508, pre-treated with VX809
T2 sequence (P13569 with tags, fused parts or gaps DEL508-508): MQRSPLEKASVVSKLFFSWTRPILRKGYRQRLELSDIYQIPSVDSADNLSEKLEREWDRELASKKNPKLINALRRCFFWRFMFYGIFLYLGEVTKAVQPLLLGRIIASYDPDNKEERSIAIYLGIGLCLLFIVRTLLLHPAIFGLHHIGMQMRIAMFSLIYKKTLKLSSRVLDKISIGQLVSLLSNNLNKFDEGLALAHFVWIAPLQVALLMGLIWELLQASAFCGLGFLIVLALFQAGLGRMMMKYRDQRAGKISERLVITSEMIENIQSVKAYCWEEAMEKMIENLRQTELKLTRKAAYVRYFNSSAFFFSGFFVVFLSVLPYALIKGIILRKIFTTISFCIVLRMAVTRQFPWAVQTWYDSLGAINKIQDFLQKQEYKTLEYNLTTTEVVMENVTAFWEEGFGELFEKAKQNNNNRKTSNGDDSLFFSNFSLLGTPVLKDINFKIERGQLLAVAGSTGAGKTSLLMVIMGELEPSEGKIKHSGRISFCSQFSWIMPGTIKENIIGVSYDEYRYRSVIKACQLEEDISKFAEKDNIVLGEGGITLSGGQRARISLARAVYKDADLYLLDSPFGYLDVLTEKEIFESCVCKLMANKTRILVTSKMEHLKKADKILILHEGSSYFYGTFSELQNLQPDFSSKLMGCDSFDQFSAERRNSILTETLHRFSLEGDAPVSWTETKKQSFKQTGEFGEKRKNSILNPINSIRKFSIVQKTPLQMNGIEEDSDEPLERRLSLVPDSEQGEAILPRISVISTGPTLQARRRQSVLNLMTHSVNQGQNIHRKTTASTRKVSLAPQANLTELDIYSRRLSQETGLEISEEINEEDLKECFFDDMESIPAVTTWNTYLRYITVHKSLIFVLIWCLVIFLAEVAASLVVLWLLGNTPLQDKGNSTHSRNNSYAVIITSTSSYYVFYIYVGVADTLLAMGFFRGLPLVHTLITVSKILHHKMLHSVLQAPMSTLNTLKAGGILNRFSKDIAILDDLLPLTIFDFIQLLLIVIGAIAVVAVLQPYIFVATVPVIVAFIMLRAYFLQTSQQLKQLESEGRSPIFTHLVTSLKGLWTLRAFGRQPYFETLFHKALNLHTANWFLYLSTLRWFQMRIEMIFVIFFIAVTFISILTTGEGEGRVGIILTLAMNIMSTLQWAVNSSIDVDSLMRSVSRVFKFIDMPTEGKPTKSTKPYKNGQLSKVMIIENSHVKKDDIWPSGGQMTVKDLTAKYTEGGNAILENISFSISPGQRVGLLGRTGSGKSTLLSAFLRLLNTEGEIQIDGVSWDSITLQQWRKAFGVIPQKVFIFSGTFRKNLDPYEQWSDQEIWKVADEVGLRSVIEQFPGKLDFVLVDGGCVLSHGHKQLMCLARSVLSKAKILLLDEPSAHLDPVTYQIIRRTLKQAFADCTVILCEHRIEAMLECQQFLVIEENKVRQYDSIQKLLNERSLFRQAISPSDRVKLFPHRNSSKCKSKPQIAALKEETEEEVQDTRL

T1 sequence (P13569 with tags, fused parts or gaps DEL508-508): as above

EC50 (CFTR ΔF508 mutant) | ΔIsc (CFTR ΔF508; compound at 50 nM (Table XV)) | ΔIsc (CFTR ΔF508; compound at 50 nM (Table XVI)) | Current increase (CFTR ΔF508; compound at 50 nM) | ΔIsc (CFTR ΔF508; compound at 100 nM (Table XVI)) | ΔIsc (CFTR ΔF508; compound at 200 nM (Table XVI)) | ΔIsc (CFTR ΔF508; compound at 3 μM) | Current increase (CFTR ΔF508; compound at 3 μM) | activity on the CFTR protein in TECC assay (ΔISC vs DMSO baseline) (CFTR ΔF508; at 3 μM, or 50 nM, or 50/100/200 nM) | EC50 (CFTR ΔF508) | SMILES
10 nM | 4.5996 μA/cm^2 | 4.5996 μA/cm^2 | 4.9244 μA/cm^2 | 4.9327 μA/cm^2 | 5.0457 μA/cm^2 | 10.9207 μA/cm^2 | 11.6634 μA/cm^2 | shows an activity | 37 nM | CC1(C)Cc2c(sc(NC(=O)c3ccn[nH]3)c2C(N)=O)C(C)(C)O1 [Compound 2, N-(3-carbamoyl-5,5,7,7-tetramethyl-5,7-dihydro-4H-thieno[2,3-c]pyran-2-yl)-1H-pyrazole-5-carboxamide]
32 nM |  |  |  |  |  | 4.6728 μA/cm^2 | 5.1939 μA/cm^2 |  |  | CC1(C)Cc2c(sc(NC(=O)C3(O)CC3)c2C(N)=O)C(C)(C)O1 [Compound 4, 2-(1-hydroxycyclopropanecarboxamido)-5,5,7,7-tetramethyl-5,7-dihydro-4H-thieno[2,3-c]pyran-3-carboxamide]
28 nM |  |  |  |  |  |  |  |  | 237 nM and 65 nM | CC1(C)Cc2c(sc(NC(=O)C3(CO)CC3)c2C(N)=O)C(C)(C)O1 [Compound 9, 2-(1-(hydroxymethyl)cyclopropanecarboxamido)-5,5,7,7-tetramethyl-5,7-dihydro-4H-thieno[2,3-c]pyran-3-carboxamide]
121 nM |  |  |  |  |  | 3.9356 μA/cm^2 | 4.4567 μA/cm^2 |  |  | CC1(C)Cc2c(sc(NC(=O)C(C)(C)CO)c2C(N)=O)C(C)(C)O1 [Compound 10, 2-(3-hydroxy-2,2-dimethylpropanamido)-5,5,7,7-tetramethyl-5,7-dihydro-4H-thieno[2,3-c]pyran-3-carboxamide]
